Results: US20210139454A1, “FORMAMIDE COMPOUND, PREPARATION METHOD THEREFOR AND APPLICATION THEREOF” (SHENZHEN CHIPSCREEN BIOSCIENCES CO., LTD., priority 2018, published 2021)

Target: T1, recombinant human ASK1 (Homo sapiens, UniProt Q99683)
T1 construct: purchased Invitrogen PR7349B
T1 sequence (Q99683 1-1374): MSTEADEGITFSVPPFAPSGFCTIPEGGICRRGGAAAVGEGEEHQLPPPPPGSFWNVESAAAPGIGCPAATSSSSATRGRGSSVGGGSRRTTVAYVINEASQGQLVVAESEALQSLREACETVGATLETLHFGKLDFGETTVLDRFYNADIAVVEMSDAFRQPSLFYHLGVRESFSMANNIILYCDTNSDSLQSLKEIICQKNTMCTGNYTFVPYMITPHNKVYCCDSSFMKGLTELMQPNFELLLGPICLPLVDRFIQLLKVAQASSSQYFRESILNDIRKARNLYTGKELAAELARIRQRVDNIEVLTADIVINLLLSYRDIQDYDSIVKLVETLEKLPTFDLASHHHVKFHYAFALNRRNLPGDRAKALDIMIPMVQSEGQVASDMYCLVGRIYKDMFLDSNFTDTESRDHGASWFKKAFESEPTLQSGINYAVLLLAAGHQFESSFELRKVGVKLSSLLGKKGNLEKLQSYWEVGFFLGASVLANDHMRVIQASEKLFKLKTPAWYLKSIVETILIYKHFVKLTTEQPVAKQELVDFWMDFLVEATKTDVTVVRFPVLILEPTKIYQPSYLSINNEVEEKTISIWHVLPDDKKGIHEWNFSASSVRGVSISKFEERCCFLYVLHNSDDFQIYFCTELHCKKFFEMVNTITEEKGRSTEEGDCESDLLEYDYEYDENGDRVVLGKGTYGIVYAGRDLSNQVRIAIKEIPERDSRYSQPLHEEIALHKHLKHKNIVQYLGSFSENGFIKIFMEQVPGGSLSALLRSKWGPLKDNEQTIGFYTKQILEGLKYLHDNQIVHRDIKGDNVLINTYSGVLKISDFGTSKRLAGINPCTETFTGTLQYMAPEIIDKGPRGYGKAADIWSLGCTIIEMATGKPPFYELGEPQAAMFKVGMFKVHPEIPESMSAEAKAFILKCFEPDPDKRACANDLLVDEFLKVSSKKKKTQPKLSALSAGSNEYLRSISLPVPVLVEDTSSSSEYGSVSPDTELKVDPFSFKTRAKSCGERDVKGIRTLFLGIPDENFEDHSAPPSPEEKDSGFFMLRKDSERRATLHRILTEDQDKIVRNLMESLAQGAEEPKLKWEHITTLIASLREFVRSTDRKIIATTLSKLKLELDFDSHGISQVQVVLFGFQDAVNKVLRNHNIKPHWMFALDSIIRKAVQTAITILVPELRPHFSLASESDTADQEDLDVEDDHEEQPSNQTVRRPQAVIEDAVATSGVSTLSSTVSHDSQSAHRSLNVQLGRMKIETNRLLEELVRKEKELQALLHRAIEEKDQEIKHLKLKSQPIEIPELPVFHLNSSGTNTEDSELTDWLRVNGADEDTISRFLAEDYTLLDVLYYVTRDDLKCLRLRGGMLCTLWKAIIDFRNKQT
Assay: ASK1 enzymatic inhibition in vitro by HTRF
Assay type: biochemical
Conditions: HTRF method, single concentration 100 nM
From the text: In this detection, homogeneous time resolved fluorescence (HTRF) was used to evaluate the inhibitory level of the compound on the enzyme activity of recombinant human ASK1 in an in vitro reaction system.
The basic principle of the detection of enzymatic activity in vitro: a specific substrate labeled with biotin at the end is phosphorylated under the action of a kinase, and the reaction product is mixed with the EU3+-Cryptate-labeled antibody that recognizes the phosphorylation site and XL665-labeled streptavidin. When the two fluorescent molecules are bound to the substrate at the same time, Eu will produce […] fluorescence under the stimulation of external excitation light (320 nm), and meanwhile, XL665 will be excited by energy transfer to produce 665 nm fluorescence. The phosphorylation of the substrate is evaluated by comparing the changes of fluorescence at two wavelengths (620 nm and 665 nm). […] The basic detection principle is known in the prior art (Cisbio, Nature Method 2006, June 23; DOI:10.1038/NMETH883).
Human recombinant ASK1 (MAP3K5) kinase, 2× kinase reaction buffer, and ATP (10 mM) were purchased from Invitrogen (Cat. No.: PR7349B), and HTRF detection kit, HTRF KinEASE STK discovery kit, was purchased from Cisbio (Cat. No.: 62ST0PEB).
The experimental process was carried out in accordance with the procedures required by the detection reagent manual (https://www.cisbio.com/sites/default/files/ressources/cisbio_ddpi_62ST0PEB.pdf). The details are as follows:
(1) Experimental preparation: the kinase reaction buffer (working solution) is prepared as required and used to dilute the test compound into different concentration gradients (the maximum concentration of the compound is 4 μM).
(2) 10 μL of the enzymatic reaction system (including 2.5 μL of test compound, 5 μL of kinase reaction buffer and 2.5 μL of ATP solution (provided in the kit)) is mixed well and reacted at room temperature for 1 h. The enzymatic reaction is carried out in a 96-well microplate.
(3) EU3+-Cryptate-labeled antibody and XL665-labeled streptavidin are diluted with reaction termination buffer in an appropriate ratio, and 5 μL of each of two diluted detection solutions is added to each reaction well and reacted at room temperature for 2 h.
(4) The reaction is set up with a control reaction at the same time, including a positive control without test compound and a negative control without ASK1 kinase. All detections are carried out in duplicate.
(5) After the reaction, a fluorescence detector (TecanSPARK 10M) is used to detect the fluorescence signal of each well, wherein, the excitation wavelength is 320 nm, and the detected emission wavelengths are 620 nm and 665 nm, respectively.
(6) The 665/620 ratio of each well is calculated respectively, and the 665/620 ratio of the negative control well is subtracted from that of the positive control well to get the basic level of phosphorylation of the substrate. The formula for calculating the enzymatic inhibition rate of the test compound: inhibition rate (%)=1-(ratio of detection wells-ratio of negative wells)/basic level of phosphorylation of the substrate. The phosphorylation inhibition rates are calculated for the test compounds with different concentration gradients, and then the 50% enzymatic inhibiting concentration (IC50) is calculated by using the IC50 calculator. The summary data of the representative compounds of the present invention are as follows (see Table 2).

| Inhibition Rate % [%] | Structure (SMILES) |
| --- | --- |
| 16 | Cc1cc(F)c(C(=O)Nc2cccc(-c3nncn3[C@@H](C)C(F)(F)F)n2)cc1NC(=O)C1CCCCCC1 [Compound I-20, (S)-5-(cycloheptylformamido)-2-fluoro-4-methyl-N-(6-(4-(1,1,1-trifluoropropyl-2-yl)-4H-1,2,4-triazol-3-yl)pyridin-2-yl)benzamide] |
| 18 | Cc1cc(F)c(C(=O)Nc2cccc(-c3nncn3C(C)C)n2)cc1NC(=O)C1CC1c1ccc(F)cc1 (stereo not drawn) [Compound I-13, 2-fluoro-5-(2-(4-fluorophenyl)cyclopropyl-1-formamido)-N-(6-(4-isopropyl-4H-1,2,4-triazol-3-yl)pyridin-2-yl)-4-methylbenzamide] |
| 21 | Cc1cc(F)c(C(=O)Nc2cccc(-c3nncn3C(C)C)n2)cc1NC(=O)C1(F)CC1 [Compound I-16, 2-fluoro-N-(6-(4-isopropyl-4H-1,2,4-triazol-3-yl)pyridin-2-yl)-4-methyl-5-(1-(fluoro)cyclopropyl-1-formamido)benzamide] |
| 15 | Cc1cc(F)c(C(=O)Nc2cccc(-c3nncn3C(C)C)n2)cc1NC(=O)[C@H]1C[C@H]1F [Compound I-17, 2-fluoro-5-((1R,2R)-2-fluorocyclopropyl-1-formamido)-N-(6-(4-isopropyl-4H-1,2,4-triazol-3-yl)pyridin-2-yl)-4-methylbenzamide] |
| 52 | Cc1cc(F)c(C(=O)Nc2cccc(-c3nncn3[C@@H](C)C(F)(F)F)n2)cc1NC(=O)C1CCCC1 [Compound I-19, (S)-5-(cyclopentylformamido)-2-fluoro-4-methyl-N-(6-(4-(1,1,1-trifluoropropyl-2-yl)-4H-1,2,4-triazol-3-yl)pyridin-2-yl)benzamide] |
| 44 | C[C@H](n1cnnc1-c1cccc(NC(=O)c2cc(NC(=O)C3CC3)ccn2)n1)C(F)(F)F [Compound I-10, (S)-4-(cyclopropylformamido)-N-(6-(4-(1,1,1-trifluoropropyl-2-yl)-4H-1,2,4-triazol-3-yl)pyridin-2-yl)pyridin-2-formamide] |
| 34 | Cc1cc(F)c(C(=O)Nc2cccc(-c3nncn3C(C)C)n2)cc1NC(=O)[C@H]1C[C@@H]1F [Compound I-18, 2-fluoro-5-((1R,2S)-2-fluorocyclopropyl-1-formamido)-N-(6-(4-isopropyl-4H-1,2,4-triazol-3-yl)pyridin-2-yl)-4-methylbenzamide] |
| 27 | C[C@H](n1cnnc1-c1cccc(NC(=O)c2cc(NC(=O)C3CC3)c(F)cn2)n1)C(F)(F)F [Compound I-11, (S)-4-(cyclopropylformamido)-5-fluoro-N-(6-(4-(1,1,1-trifluoropropyl-2-yl)-4H-1,2,4-triazol-3-yl)pyridin-2-yl)pyridin-2-formamide] |

The remaining lines, values behind:

| Structure (SMILES) | Inhibition Rate % [%] |
| --- | --- |
| COC[C@@H](C)n1cnnc1-c1cccc(NC(=O)c2cc(NC(=O)C3CC3)c(C)cc2F)n1 [Compound I-6] | 13 |
| C[C@H](n1cnnc1-c1cccc(NC(=O)c2cc(NC(=O)C3CC3)c(Cl)cc2F)n1)C(F)(F)F [Compound I-9, (S)-4-chloro-5-(cyclopropylformamido)-2-fluoro-N-(6-(4-(1,1,1-trifluoropropyl-2-yl)-4H-1,2,4-triazol-3-yl)pyridin-2-yl)benzamide] | 33 |
| Cc1cc(F)c(C(=O)Nc2csc(-c3nncn3[C@@H](C)C(F)(F)F)n2)cc1NC(=O)C1CC1 [Compound I-8] | 24 |
| Cc1cc(F)c(C(=O)Nc2cccc(-c3nncn3[C@@H](C)C(F)(F)F)n2)cc1NC(=O)C1CC1 [Compound I-3, (5)-5-(cyclopropylformamido)-2-fluoro-4-methyl-N-(6-(4-(1,1,1-trifluoropropyl-2-yl)-4H-1,2,4-triazol-3-yl)pyridin-2-yl)benzamide] | 51 |

Same assay, conditions: HTRF method, single concentration 100 nM; read-out: Inhibition Rate %

| inhibition at 0.1 µM [%] | Structure (SMILES) |
| --- | --- |
| 32 | Cc1cc(F)c(C(=O)Nc2cccc(-c3nncn3CC(F)(F)F)n2)cc1NC(=O)C1CC1 [Compound I-4, 5-(cyclopropylformamido)-2-fluoro-4-methyl-N-(6-(4-(2,2,2-trifluoroethyl)-4H-1,2,4-triazol-3-yl)pyridin-2-yl)benzamide] |
| 54 | Cc1cc(F)c(C(=O)Nc2cccc(-c3nncn3C(C)C)n2)cc1NC(=O)C1CC1 [Compound I-1, 5-(cyclopropylformamido)-2-fluoro-4-methyl-N-(6-(4-isopropyl-4H-1,2,4-triazol-3-yl)pyridin-2-yl)benzamide] |
| 42 | Cc1cc(F)c(C(=O)Nc2cccc(-c3nncn3C(C)C)n2)cc1NC(=O)C1CCC1 [Compound I-14, 5-(cyclobutylformamido)-2-fluoro-N-(6-(4-isopropyl-4H-1,2,4-triazol-3-yl)pyridin-2-yl)-4-methylbenzamide] |
